From ChEMBL document CHEMBL5370553, “Small-molecule LRRK2 inhibitors for PD therapy: Current achievements and future perspectives” (Eur J Med Chem, 2023)

Key:
[1] = target: T1, von Hippel-Lindau disease tumor suppressor/Leucine-rich repeat serine/threonine-protein kinase 2 (Homo sapiens) (UniProt Q5S007+P40337); experiment: PROTAC activity at VHL/LRRK2 in human PBMC cells assessed as induction of degradation by measuring half life measured after 24 hrs by Western blot analysis; format: cell-based
[2] = tested on: von Hippel-Lindau disease tumor suppressor/Leucine-rich repeat serine/threonine-protein kinase 2 (Homo sapiens), Q5S007+P40337 [G2019S]; experiment: PROTAC activity at VHL/LRRK2 G2019S mutant in human PBMC cells assessed as induction of degradation by measuring half life measured after 24 hrs by Western blot analysis; format: cell-based
[3] = target: T1, von Hippel-Lindau disease tumor suppressor/Leucine-rich repeat serine/threonine-protein kinase 2 (Homo sapiens); experiment: PROTAC activity at VHL/LRRK2 in human PBMC cells assessed as reduction of protein degradation at 300 nM measured after 4 hrs by Western blot analysis relative to control; format: cell-based
[4] = tested on: von Hippel-Lindau disease tumor suppressor/Leucine-rich repeat serine/threonine-protein kinase 2 (Homo sapiens), Q5S007+P40337 [G2019S]; experiment: PROTAC activity at VHL/LRRK2 G2019S mutant in human PBMC cells assessed as reduction of protein degradation at 300 nM measured after 4 hrs by Western blot analysis relative to control; format: cell-based
[5] = target: T2, von Hippel-Lindau disease tumor suppressor/Leucine-rich repeat serine/threonine-protein kinase 2 (Homo sapiens, UniProt P40337+Q5S007); experiment: PROTAC activity at VHL/LRRK2 in human PBMC cells assessed as reduction of protein degradation measured after 24 hrs by Western blot; format: cell-based
[6] = target: T3, von Hippel-Lindau disease tumor suppressor/Leucine-rich repeat serine/threonine-protein kinase 2 (Homo sapiens, UniProt P40337+Q5S007, G2019S); experiment: PROTAC activity at VHL/LRRK2 G2019S mutant in human PBMC cells assessed as reduction of protein degradation measured after 24 hrs by Western blot; format: cell-based
[7] = target: T2, von Hippel-Lindau disease tumor suppressor/Leucine-rich repeat serine/threonine-protein kinase 2; experiment: PROTAC activity at VHL/LRRK2 in human PBMC cells assessed as reduction of protein degradation measured after 4 hrs by Western blot; format: cell-based
[8] = target: T3, von Hippel-Lindau disease tumor suppressor/Leucine-rich repeat serine/threonine-protein kinase 2; experiment: PROTAC activity at VHL/LRRK2 G2019S mutant in human PBMC cells assessed as reduction of protein degradation measured after 4 hrs by Western blot; format: cell-based
[9] = Oral bioavailability in mouse at 30 mg/kg measured upto 8 hrs by LC-MS/MS analysis; format: ADME, organism-based; conditions: in vivo
[10] = target: T4, Leucine-rich repeat serine/threonine-protein kinase 2 (Homo sapiens, UniProt Q5S007); experiment: Inhibition of GST-tagged recombinant human LRRK2 expressed in Insect cell using ERM as substrate measured after 1 hrs
[11] = target: T5, Leucine-rich repeat serine/threonine-protein kinase 2 (Homo sapiens, UniProt Q5S007, G2019S); experiment: Inhibition of GST-tagged human LRRK2 G2019S mutant expressed in Insect cell using ERM as substrate measured after 1 hrs
[12] = target: T4, Leucine-rich repeat serine/threonine-protein kinase 2; experiment: Inhibition of GST20-tagged human LRRK2 using ERM as substrate measured after 90 mins in presence of ATP by lanthascreen TR-FRET assay
[13] = target: T4, Leucine-rich repeat serine/threonine-protein kinase 2; experiment: Inhibition of GST20-tagged human LRRK2 by cell based assay
[14] = target: T1, von Hippel-Lindau disease tumor suppressor/Leucine-rich repeat serine/threonine-protein kinase 2 (Homo sapiens); experiment: PROTAC activity at VHL/LRRK2 in human PBMC cells assessed as reduction of protein degradation measured after 24 hrs by Western blot analysis relative to control; format: cell-based
[15] = tested on: von Hippel-Lindau disease tumor suppressor/Leucine-rich repeat serine/threonine-protein kinase 2 (Homo sapiens), Q5S007+P40337 [G2019S]; experiment: PROTAC activity at VHL/LRRK2 G2019S mutant in human PBMC cells assessed as reduction of protein degradation measured after 24 hrs by Western blot analysis relative to control; format: cell-based
[16] = target: Protein cereblon/Leucine-rich repeat serine/threonine-protein kinase 2 (Mus musculus, UniProt Q5S006+Q8C7D2); experiment: PROTAC activity at CRBN/LRRK2 in mouse RAW264.7 cells assessed as reduction of protein degradation measured after 24 hrs by Western blot analysis; format: cell-based
[17] = target: T4, Leucine-rich repeat serine/threonine-protein kinase 2; experiment: Inhibition of human LRRK2 measured after 60 mins by TR-FRET assay
[18] = target: T5, Leucine-rich repeat serine/threonine-protein kinase 2; experiment: Inhibition of human LRRK2 G2019S mutant measured after 60 mins by TR-FRET assay
[19] = Oral bioavailability in CD-1 mouse at 5 mg/kg; format: ADME, organism-based; conditions: in vivo
[20] = Half life in CD-1 mouse at 1 mg/kg, iv; format: ADME, organism-based; conditions: in vivo
[21] = target: Leucine-rich repeat serine/threonine-protein kinase 2 (Mus musculus, UniProt Q5S006); experiment: Inhibition of mouse LRRK2
[22] = target: T4, Leucine-rich repeat serine/threonine-protein kinase 2; experiment: Inhibition of human full length LRRK2 using RLGRDKYKTLRQIRQ peptide as substrate by mass spectrometry analysis
[23] = target: Dual specificity protein kinase CLK2 (Homo sapiens, UniProt P49760); experiment: Inhibition of CLK2 (unknown origin) by fluorescence based assay
[24] = Mean residence time in rat by LC-MS/MS analysis; format: ADME; conditions: in vivo
[25] = Mean residence time in Beagle dog by LC-MS/MS analysis; format: ADME, Canis lupus familiaris; conditions: in vivo
[26] = Oral bioavailability in rat by LC-MS/MS analysis; format: ADME, organism-based; conditions: in vivo
[27] = Oral bioavailability in Beagle dog by LC-MS/MS analysis; format: ADME, organism-based, Canis lupus familiaris; conditions: in vivo
[28] = Half life in mouse; format: ADME, organism-based; conditions: in vivo
[29] = target: T4, Leucine-rich repeat serine/threonine-protein kinase 2; experiment: Inhibition of recombinant N-terminal GST-tagged human LRRK2 expressed in Sf9 insect cells using H-RLGAWRFTTLRRARQGNTKQR-OH peptide as substrate
[30] = target: T5, Leucine-rich repeat serine/threonine-protein kinase 2; experiment: Inhibition of recombinant N-terminal GST-tagged human G2019S LRRK2 expressed in Sf9 insect cells using H-RLGAWRFTTLRRARQGNTKQR-OH peptide as substrate
[31] = target: T5, Leucine-rich repeat serine/threonine-protein kinase 2; experiment: Inhibition of LRRK2 G2019S mutant (unknown origin)
[32] = Oral bioavailability in rat; format: ADME, organism-based; conditions: in vivo
[33] = Half life in rat; format: ADME; conditions: in vivo
[34] = target: T4, Leucine-rich repeat serine/threonine-protein kinase 2; experiment: Inhibition of LRRK2 (unknown origin)
[35] = target: T4, Leucine-rich repeat serine/threonine-protein kinase 2; experiment: Inhibition of human LRRK2 using LRRKtide as substrate measured after 1 hrs by caliper mobility shift assay
[36] = target: T5, Leucine-rich repeat serine/threonine-protein kinase 2; experiment: Inhibition of human LRRK2 G2019S mutant using LRRKtide as substrate measured after 1 hrs by caliper mobility shift assay

T4 sequence (Q5S007 whole entry): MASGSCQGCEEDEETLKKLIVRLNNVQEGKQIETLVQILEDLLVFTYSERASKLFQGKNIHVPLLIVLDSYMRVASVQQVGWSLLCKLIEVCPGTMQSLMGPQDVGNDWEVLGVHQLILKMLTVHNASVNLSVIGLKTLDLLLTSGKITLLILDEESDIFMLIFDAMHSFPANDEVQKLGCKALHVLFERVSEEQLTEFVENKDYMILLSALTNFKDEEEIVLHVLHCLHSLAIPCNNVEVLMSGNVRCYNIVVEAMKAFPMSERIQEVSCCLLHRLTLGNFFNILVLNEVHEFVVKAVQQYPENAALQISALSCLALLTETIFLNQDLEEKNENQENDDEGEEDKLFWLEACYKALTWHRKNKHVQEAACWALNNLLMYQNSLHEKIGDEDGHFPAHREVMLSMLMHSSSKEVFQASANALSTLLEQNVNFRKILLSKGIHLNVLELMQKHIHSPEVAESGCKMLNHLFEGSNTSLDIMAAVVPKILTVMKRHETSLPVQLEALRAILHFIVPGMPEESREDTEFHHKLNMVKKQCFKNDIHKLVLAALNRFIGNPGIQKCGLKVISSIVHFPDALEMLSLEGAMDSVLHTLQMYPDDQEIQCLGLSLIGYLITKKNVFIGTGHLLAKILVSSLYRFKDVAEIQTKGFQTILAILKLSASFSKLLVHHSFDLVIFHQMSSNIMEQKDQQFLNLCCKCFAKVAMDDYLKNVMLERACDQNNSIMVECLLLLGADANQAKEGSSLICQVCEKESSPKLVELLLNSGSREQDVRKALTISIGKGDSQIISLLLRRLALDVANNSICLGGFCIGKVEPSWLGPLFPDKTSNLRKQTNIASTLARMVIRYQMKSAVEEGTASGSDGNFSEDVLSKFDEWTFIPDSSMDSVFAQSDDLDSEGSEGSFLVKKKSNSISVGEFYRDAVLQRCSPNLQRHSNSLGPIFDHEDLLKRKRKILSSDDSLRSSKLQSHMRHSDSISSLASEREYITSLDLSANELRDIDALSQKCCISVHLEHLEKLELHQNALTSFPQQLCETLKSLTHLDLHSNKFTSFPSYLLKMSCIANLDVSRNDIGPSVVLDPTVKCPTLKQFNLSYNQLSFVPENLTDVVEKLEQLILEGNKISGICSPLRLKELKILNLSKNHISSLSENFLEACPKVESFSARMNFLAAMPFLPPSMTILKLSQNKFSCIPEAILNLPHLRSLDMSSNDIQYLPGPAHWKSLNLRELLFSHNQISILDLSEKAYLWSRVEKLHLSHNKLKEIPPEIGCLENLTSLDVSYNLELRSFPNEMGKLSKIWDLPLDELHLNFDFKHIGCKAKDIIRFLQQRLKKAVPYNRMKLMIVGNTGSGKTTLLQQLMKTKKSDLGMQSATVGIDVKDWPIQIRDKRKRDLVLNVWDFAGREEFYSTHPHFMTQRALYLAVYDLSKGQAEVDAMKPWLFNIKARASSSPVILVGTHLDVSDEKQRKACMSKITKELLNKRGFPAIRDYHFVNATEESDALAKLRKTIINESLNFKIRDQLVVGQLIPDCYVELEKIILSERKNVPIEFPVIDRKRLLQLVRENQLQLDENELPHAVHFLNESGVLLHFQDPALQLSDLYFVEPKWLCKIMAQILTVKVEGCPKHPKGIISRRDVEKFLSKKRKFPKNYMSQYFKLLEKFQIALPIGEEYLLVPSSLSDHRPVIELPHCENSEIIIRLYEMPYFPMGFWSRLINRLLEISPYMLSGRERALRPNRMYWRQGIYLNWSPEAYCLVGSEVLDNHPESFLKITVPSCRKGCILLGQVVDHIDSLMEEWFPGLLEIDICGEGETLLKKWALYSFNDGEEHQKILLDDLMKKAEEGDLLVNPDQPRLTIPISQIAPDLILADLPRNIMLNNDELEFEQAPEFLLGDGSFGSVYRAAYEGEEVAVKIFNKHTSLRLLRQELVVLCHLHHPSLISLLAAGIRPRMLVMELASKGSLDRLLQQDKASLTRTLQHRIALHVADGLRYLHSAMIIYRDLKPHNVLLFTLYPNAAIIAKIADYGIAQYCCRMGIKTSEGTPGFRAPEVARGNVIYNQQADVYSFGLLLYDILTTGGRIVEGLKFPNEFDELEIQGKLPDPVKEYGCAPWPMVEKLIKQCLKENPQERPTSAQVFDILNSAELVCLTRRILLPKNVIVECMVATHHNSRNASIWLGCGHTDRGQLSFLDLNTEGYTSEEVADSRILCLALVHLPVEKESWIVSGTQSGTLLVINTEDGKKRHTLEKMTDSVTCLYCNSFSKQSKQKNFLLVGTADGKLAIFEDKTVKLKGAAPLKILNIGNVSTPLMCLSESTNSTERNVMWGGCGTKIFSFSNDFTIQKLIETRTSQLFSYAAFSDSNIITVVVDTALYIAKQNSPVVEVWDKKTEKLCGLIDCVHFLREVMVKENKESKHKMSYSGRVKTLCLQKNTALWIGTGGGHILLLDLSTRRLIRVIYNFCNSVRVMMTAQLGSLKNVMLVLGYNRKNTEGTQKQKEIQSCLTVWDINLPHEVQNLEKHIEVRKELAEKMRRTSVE
T2 sequence (Q5S007 whole entry): as above
T2 sequence (P40337 whole entry): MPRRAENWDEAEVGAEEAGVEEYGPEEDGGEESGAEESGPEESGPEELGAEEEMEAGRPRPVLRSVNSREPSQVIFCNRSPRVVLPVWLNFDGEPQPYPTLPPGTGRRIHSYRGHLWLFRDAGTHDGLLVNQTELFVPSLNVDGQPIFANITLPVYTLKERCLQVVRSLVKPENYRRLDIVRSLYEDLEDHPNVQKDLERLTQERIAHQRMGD
T3 sequence (P40337 whole entry, stated change not applied): as the sequence (P40337 whole entry) above
T3 sequence (Q5S007 whole entry G2019S, stated change not applied): as the sequence (Q5S007 whole entry) above, with G2019S counted along it
T1 sequence (P40337 whole entry, looked up): as the sequence (P40337 whole entry) above
T1 sequence (Q5S007 whole entry, looked up): as the sequence (Q5S007 whole entry) above
T5 sequence (Q5S007 whole entry G2019S): as the sequence (Q5S007 whole entry) above, with G2019S counted along it
Sequence of Dual specificity protein kinase CLK2 (P49760 whole entry): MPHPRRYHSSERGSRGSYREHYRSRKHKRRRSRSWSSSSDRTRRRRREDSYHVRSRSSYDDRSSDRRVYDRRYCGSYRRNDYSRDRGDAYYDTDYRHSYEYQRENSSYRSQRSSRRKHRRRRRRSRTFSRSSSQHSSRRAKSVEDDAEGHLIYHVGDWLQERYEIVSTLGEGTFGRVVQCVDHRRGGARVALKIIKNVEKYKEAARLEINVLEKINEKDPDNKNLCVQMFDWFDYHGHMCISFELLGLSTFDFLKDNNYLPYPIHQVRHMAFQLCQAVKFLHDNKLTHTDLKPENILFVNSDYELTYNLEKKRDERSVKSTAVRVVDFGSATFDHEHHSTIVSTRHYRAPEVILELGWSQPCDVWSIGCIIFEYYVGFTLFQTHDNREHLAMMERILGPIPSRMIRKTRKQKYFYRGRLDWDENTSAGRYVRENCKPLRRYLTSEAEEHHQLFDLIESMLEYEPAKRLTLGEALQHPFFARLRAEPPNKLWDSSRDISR

Compound CNc1nc(Nc2ccc(C(=O)N3CCN(C[C@H]4CC[C@H](CSC(C)(C)[C@H](NC(=O)C5(F)CC5)C(=O)N5C[C@H](O)C[C@H]5C(=O)NCc5ccc(-c6scnc6C)cc5)CC4)CC3)cc2OC)ncc1Cl has a T1/2 [1] of 1.2 h, a T1/2 [2] of 0.6 h and an Emax [3] of 82%. For the same compound, the Emax [4] was 81%, the IC50 [5] was 12.4 nM and the IC50 [6] was 24.3 nM. For the same compound, the EC50 [7] was 32 nM, the EC50 [8] was 14 nM and the bioavailability [9] was 15%.
Work on Cn1cc(-c2c[nH]c3ncnc(N4CCOCC4)c23)cc1C#N yielded an IC50 [10] of 13 nM and an IC50 [11] of 6.37 nM.
With Cn1cc(-c2cccc(C(=O)Nc3cc(N4CC[C@@H](C(C)(C)O)C4)cnc3C(F)(F)F)n2)cn1 the IC50 [12] was 17 nM and the IC50 [13] was 21 nM.
With CNc1nc(Nc2ccc(C(=O)N3CCN(CCOCCOCCSC(C)(C)[C@H](NC(=O)C4(F)CC4)C(=O)N4C[C@H](O)C[C@H]4C(=O)NCc4ccc(-c5scnc5C)cc4)CC3)cc2OC)ncc1Cl the Emax [14] was 51%, the Emax [15] was 58% and the T1/2 [1] was 5.1 h. For the same compound, the T1/2 [2] was 1.4 h.
CCNc1nc(Nc2cc(F)c(C(=O)NCCCCNc3cccc4c3C(=O)N(C3CCC(=O)NC3=O)C4=O)cc2OC)ncc1C(F)(F)F (stereo not given) showed an IC50 [16] of 14.7 nM.
Compound CC(C)(O)[C@@H]1CCN(c2cnc(C(F)(F)F)c(NC(=O)c3cccc(-c4cnn(CC(F)(F)F)c4)n3)c2)C1 has an IC50 [12] of 10 nM and an IC50 [13] of 0.7 nM.
For COc1cc(N2CCOCC2)ccc1Nc1ncc(F)c(Nc2ccccc2NS(C)(=O)=O)n1, the IC50 [17] was 4.76 nM, the IC50 [18] was 6.87 nM and the bioavailability [19] was 133%. It also gave a half-life [20] of 1 h.
Work on CCOc1cc(N2CCOCC2)ccc1Nc1ncc(F)c(Nc2ccccc2NS(C)(=O)=O)n1 yielded an IC50 [21] of 190 nM.
In the case of Cc1c2c(nn1C1CCOCC1)OCCCNc1nc(ncc1Cl)N2, the IC50 [22] is reported as at most 100 nM.
With CNc1nc(Nc2ccc(C(=O)N3CCN(C[C@H]4CC[C@@H](CSC(C)(C)[C@H](NC(=O)C5(F)CC5)C(=O)N5C[C@H](O)C[C@H]5C(=O)NCc5ccc(-c6scnc6C)cc5)CC4)CC3)cc2OC)ncc1Cl the T1/2 [1] was 2.7 h, the T1/2 [2] was 1.4 h and the Emax [3] was 59%. For the same compound, the Emax [4] was 90%, the EC50 [7] was 32 nM and the EC50 [8] was 7 nM.
In the case of Cn1cc(-c2cccc(C(=O)Nc3cc(N4CCC(C(C)(C)O)C4)ncc3C(F)(F)F)n2)cn1 (stereo not given), the IC50 [12] is reported as 1 nM, the IC50 [13] is reported as 2.5 nM and the IC50 [23] is reported as 63 nM. It also gave an MRT [24] of 5.2 h, an MRT [25] of 3.6 h and a bioavailability [26] of 16%. It also gave a bioavailability [27] of 43%.
Work on COc1cc(C(=O)N2CCC(N3CCN(C)CC3)CC2)ccc1Nc1ncc2c(n1)N(C)c1ccccc1C(=O)N2C yielded a half-life [28] of 4.5 h.
Work on CCC(Sc1ccc2nnc(-c3cccs3)n2n1)C(=O)N1CCCCC1 (stereo not given) yielded an IC50 [29] of 146 nM and an IC50 [30] of 75 nM.
COc1cc(N2CCOCC2)ccc1Nc1ncc(Cl)c(Nc2ccccc2NS(C)(=O)=O)n1 gave an IC50 [17] of 1.28 nM and an IC50 [18] of 1.85 nM.
Work on CCNc1nc(Nc2cc(F)c(C(=O)N3CCOCC3)cc2OC)ncc1C(F)(F)F yielded an IC50 [31] of 1 nM, a bioavailability [32] of 40% and a half-life [33] of 3.1 h.
In the case of C=CC(=O)Nc1cccc(Oc2nc(Nc3ccc(N4CCN(C)CC4)c(F)c3)nc3[nH]ccc23)c1 [ABIVERTINIB], the IC50 [31] is reported as 410 nM and the IC50 [34] is reported as 177 nM.
Cn1cc(-c2nc(C(=O)Nc3cnn(C4CCC4)c3)cs2)cn1 showed an IC50 [12] of 14 nM and an IC50 [13] of 271 nM.
Work on CNc1nc(N/N=C/c2cccc3ccccc23)nc(Nc2cccc(C(F)(F)F)c2)n1 yielded an IC50 [35] of 424 nM and an IC50 [36] of 378 nM.
CC(C)Nc1nc(Nc2ccc(C(=O)NCc3ccccc3)cc2)nc2ccsc12 showed an IC50 [31] of 14 nM and an IC50 [34] of 30 nM.
